The numbers were not newly measured in patent US6905813B2, “Processing agent for silver halide color photosensitive material and processing method thereof” (Chugai Photo Chemical Co., Ltd., priority 2001, dated 2005), which cites them from elsewhere.

Molecules are shown by their SMILES. Where two headings read alike, the source gives them in different places.

Where [1] appears, read: Table 1, additives of Example 1.
Setting [2] is: Table 3, additives of Example 2.
The mark [3] stands for this setting: Table 7, additives of Example 4.
Setting [4] is: Table 5, additives of Example 3.

Usually pKa stands for the pH at which an ionisable group is half protonated. Turning to `CC(N)CCN` (centres unmarked) [1,3-diaminobutane], the pKa is on record as 8.74 under setting [1], 8.74 under setting [2] and 8.74 under setting [3].

Take `NCCCCN` [1,4-diaminobutane]: the pKa under setting [1] was 9.44, the pKa under setting [2] was 9.44 and the pKa under setting [3] is recorded as 9.44.

Take `Nc1ccccn1` [2-aminopyridine]: the pKa under setting [4] was 6.79.

Turning to `O=S([O-])[O-].[Na+].[Na+]` [Sodium sulfite], the pKa under setting [1] is reported as 7.19, the pKa under setting [2] was 7.19, the pKa under setting [4] is listed as 7.19 and the pKa under setting [3] was 7.19.
